The subject of data set [1] is TGF-β stimulated renal tubular epithelial cells HK-2. The data set is described as follows: Fibrosis markers in TGF-β stimulated HK-2 cells (immunoblotting, qPCR). The data set is classed as cell-based. The conditions noted are these: different concentrations of chidamide. On the procedure: Example 1 verified that HDAC1/2/3/10 can participate in renal fibrosis, and example 2 further explored the effect of chidamide on renal fibrosis in TGF-β stimulated renal tubular epithelial cells. In example 2, cells were treated by using different concentrations of chidamide and then stimulated by adding TGF-β, and the protein expression and mRNA levels of fibrosis markers were detected respectively by using immunoblotting and qPCR experiments.
In FIG. 2, (A) the effect of different concentrations of chidamide on protein expression of fibrosis markers α-SMA and Vimentin (Vim) in TGF-β stimulated HK-2 cells was detected by the immunoblotting experiment; (B-C) the statistical results of α-SMA and Vimentin in FIG. A in 3 biological duplications, Mean±SDs, Student's t-test, *: P<0.05; **: P<0.01; (D-E) the effect of different concentrations of chidamide on […] experiment in TGF-β stimulated HK-2 cells, and the statistical resultsare 3 technical duplications, Mean±SD, Student's t-test, *: P<0.05, **: P<0.01, ***: P<0.001, ****: P<0.0001.
A general note: A western blot detects proteins with antibodies after separation by electrophoresis.

In a further data set the test system is UUO mice. In words: Renal fibrosis mouse model (UUO): renal morphology, renal function, collagen deposition, fibrosis markers. The class given is in vivo. The source says:
In this example, a renal fibrosis mouse model (UUO: Unilateral Uretera Obstruction, renal interstitial fibrosis model) was constructed through UUO surgery at the same time. On the 7th day after surgery, the protein expression of HDAC1/2/3/10 in test group (UUO) and control group (Sham) was detected respectively through immunoblotting and immunohistochemical tests.
In this example, mice were divided into 7 groups at random with 7 mice in each group, which were Sham group (sham), Sham+chidamide group (Sham-Chi 10 mg/kg/d), model group (UUO), UUO+Enacept positive control group (UUO-En 10 mg/kg/d), UUO+chidamide low-dose administration group (UUO-Chi 1 mg/kg/d), UUO+chidamide medium-dose administration group (UUO-Chi 5 mg/kg/d) and UUO+chidamide high-dose administration group (UUO-Chi 10 mg/kg/d), respectively. All drugs were administrated by gavage 3 days before modeling, once a day, until 7 days after surgery. Mice were weighed everyday after surgery, and then growth curves were plotted. After administration was ended, the mice were anesthetized, the eye sockets were removed and bloods were collected for the detection of serum creatinine (Scr) and urea nitrogen (BUN). At the same time, left and right kidneys were taken and then weighed after hydronephrosis was removed, so as to obtain the renal weight indexes of the obstructed kidneys in mice (kidney weight/mouse weight at the obstructed side). The photos were taken.
In FIG. 3, (A) the weight growth curve of mice verified the effect of UUO modeling and intragastric administration of chidamide on mouse weight, n=7, Mean±SDs, Student's t-test, ns: not significant; (B) the renal weight index change of mice (the statistical chart above, n=4, Mean±SDs, Student's t-test, *: P<0.05, **: P<0.01, ****: P<0.0001, ns: not significant) and renal tissue in vitro photos (below) verified the effect of chidamide on renal morphological changes of UUO mice; (C-D) mouse creatinine (C) and urea nitrogen (D) changes verified the effect of chidamide on renal functions of UUO mice, n=5-6, Mean±SDs, Student's t-test, *: P<0.05, **: P<0.01, ***: P<0.001, ns: not significant.
In the above constructed UUO mouse model of this example, the effect of chidamide on renal interstitial collagen fiber deposition was detected further by Masson staining.
In FIG. 4, (A-B) the deposition of renal interstitial collagen fibers was detected after UUO modeling and chidamide was administrated, (A) a typical picture for Masson staining; (B) the statistical results of Masson staining area proportion, n=6, Mean±SDs, Student's t-test, *: P<0.05, **: P<0.01, ****: P<0.0001, ns: not significant.
In this example, the improvement effect of chidamide on UUO renal fibrosis was further detected. In the above constructed UUO mouse model of this example, the effect of chidamide on protein expression of renal fibrosis markers was detected respectively by immunohistochemistry and immunoblotting experiments, and the change in fibrosis marker mRNA was detected by the qPCR experiment. […]

For data set [2], the system named is PI3K/Akt signaling pathway. The data set is described as follows: PI3K/Akt signaling pathway in TGF-β stimulated HK-2 cells (immunoblotting). The class given is cell-based. The source says: (§1) The PI3K-Akt signaling pathway is an intracellular signal transduction pathway which responds to extracellular signals, promotes metabolism, proliferation, cell survival, growth and angiogenesis, and participates in pathophysiological processes of multiple diseases. […] The above experimental results all verify that chidamide can inhibit the PI3K/Akt signaling pathway.
(§2) In FIG. 7, (A) the effects of chidamide onprotein expression of p-PI3K, PI3K, p-Akt and Akt in TGF-β stimulated renal tubular epithelial cell HK-2 were detected by the immunoblotting experiment; (B-C) the statistical charts showingthe effect of chidamide onp-PI3K/PI3K and p-Akt/Akt ratios in TGF-β stimulated renal tubular epithelial cell HK-2, n=3, Mean±SDs, Student's t-test, *: P<0.05; (D) the effectof chidamide on protein expression of p-PI3K, PI3K, p-Akt and Akt in UUO mouse model was detected by the immunoblotting experiment (n=4); (E) the effect of chidamide on proein expression of autophagy markers of TGF-β stimulated renal tubular epithelial cell HK-2 was detected by the immunoblotting experiment; (F) the effect of chidamide on protein expression of autophagy markers as well as p-mTOR and mTOR in UUO mouse model was detected by the immunoblotting experiment (n=4).

Data set [3] deals with PI3K/Akt signaling pathway. The data set is described as follows: PI3K/Akt signaling pathway in UUO mouse model (immunoblotting). The data set is classed as in vivo.
Description: as §1, §2

Data set [4] deals with TGF-β stimulated renal tubular epithelial cells HK-2. The data set is described as follows: PI3K inhibitor LY 294002 and chidamide on fibrosis markers Collagen I and α-SMA in TGF-β stimulated HK-2 (immunoblotting). The class given is cell-based. To be noted: FIG. 8B. The source says: Subsequently, this example further investigated the change of chidamide on fibrosis markers after LY 294002 treatment was used in TGF-β stimulated renal tubular epithelial cells HK-2. […] The above experimental results initially verify that chidamide is very likely to inhibit the progression of renal fibrosis through the PI3K/Akt signaling pathway.
In FIG. 8, (A) the effect of different concentrations of LY 294002 (LY) on protein expression of fibrosis markers Collagen I and α-SMA in TGF-β stimulated renal tubular epithelial cells HK-2 was detected by the immunoblotting experiment; (B) the effect of LY 294002 (LY) on fibrosis marker Collagen I and α-SMA protein expression by chidamide was detected in TGF-β stimulated renal tubular epithelial cells HK-2 by the immunoblotting experiment.

As for `Nc1cc(F)ccc1NC(=O)c1ccc(CNC(=O)/C=C/c2cccnc2)cc1` [chidamide, N-(2-amino-4-fluorophenyl)-4-[N-[(E)-3-(3-pyridine)acryloyl]aminomethyl]benzamide], the “protein expression of fibrosis markers (α-SMA, Vimentin)” value in data set [1] (immunoblotting, FIG. 2A-C) is reported as “significantly decreased”. For the same molecule, in data set [1] (qPCR, FIG. 2D-E), the “mRNA level of fibrosis markers (α-SMA, Vimentin)” value was “significantly decreased”. Besides, in the data set with UUO mice (UUO mice after chidamide administration, FIG. 3C), the “serum creatinine (Scr)” value is given as “obviously fall back”. Also, the “urea nitrogen (BUN)” value with UUO mice (UUO mice after chidamide administration, FIG. 3D) was “obviously fall back”. Further, the “renal interstitial collagen fiber deposition” value with UUO mice (UUO mice, Masson staining, FIG. 4) is recorded as “significantly improved”. Further, the “protein expression of renal fibrosis markers” value in the data set on UUO mice (UUO mouse renal tissues, immunohistochemistry and immunoblotting, FIGS. 5A-E) was “significantly fall back”. The “mRNA of renal fibrosis markers” value in the data set on UUO mice (UUO mouse renal tissues, qPCR, FIGS. 5F-I) is on record as “significantly fall back”. Also, in the data set with UUO mice (UUO+chidamide group compared with UUO group, FIG. 3B), the “ureteral dilation degree and renal tissue squeezing degree” value is reported as “less than those in corresponding UUO group”. Besides, the “obstruction renal weight index (kidney weight/mouse weight at the obstructed side)” value with UUO mice (UUO+chidamide group compared with UUO group, gavage, FIG. 3B) is “significantly decreased”. Moreover, in the data set with UUO mice (intragastric administration at various doses (1, 5, 10 mg/kg/d), once a day, 3 days before modeling until 7 days after surgery, FIG. 3A), the “weight growth curve of mice” value is reported as “did not affect the growth of mice”. For the same molecule, the “autophagy flow (autophagy markers)” value in data set [2] (FIG. 7E) was “restore an autophagy flow”. Further, in data set [2] (FIGS. 7A-C), the p-Akt/Akt ratio entry is given as “significantly reduced” and the p-PI3K/PI3K ratio entry is on record as “significantly reduced”. Moreover, in data set [3] (FIG. 7D), the p-Akt/Akt ratio entry is reported as “significantly reduced” and the p-PI3K/PI3K ratio result is listed as “significantly reduced”. Also, in data set [3] (FIG. 7F), the “autophagy flow (autophagy markers)” value was “restore an autophagy flow” and the p-mTOR/mTOR ratio entry is on record as “reduce”. Further, the “expression of fibrosis markers Collagen I and α-SMA” value in data set [4] (TGF-β stimulated HK-2, chidamide with PI3K inhibitor LY 294002 used simultaneously) is listed as “cannot affect the expression of fibrosis markers any more”. Moreover, in data set [4] (TGF-β stimulated HK-2, used alone), the “protein expression of fibrosis markers Collagen I and α-SMA” value was “can inhibit”.

(Values after patent publication US12453723B2, “Use of chidamide in preparing drug for treating renal fibrosis” (THE SECOND AFFILIATED HOSPITAL OF SOOCHOW UNIVERSITY, priority 2023, dated 2025).)
